One assay concerns the target T1, TRα (Homo sapiens, UniProt P10827).
T1 construct: expressed in transfected cells; host or cells: HEK293
T1 sequence (P10827 1-410 isoform P10827-2): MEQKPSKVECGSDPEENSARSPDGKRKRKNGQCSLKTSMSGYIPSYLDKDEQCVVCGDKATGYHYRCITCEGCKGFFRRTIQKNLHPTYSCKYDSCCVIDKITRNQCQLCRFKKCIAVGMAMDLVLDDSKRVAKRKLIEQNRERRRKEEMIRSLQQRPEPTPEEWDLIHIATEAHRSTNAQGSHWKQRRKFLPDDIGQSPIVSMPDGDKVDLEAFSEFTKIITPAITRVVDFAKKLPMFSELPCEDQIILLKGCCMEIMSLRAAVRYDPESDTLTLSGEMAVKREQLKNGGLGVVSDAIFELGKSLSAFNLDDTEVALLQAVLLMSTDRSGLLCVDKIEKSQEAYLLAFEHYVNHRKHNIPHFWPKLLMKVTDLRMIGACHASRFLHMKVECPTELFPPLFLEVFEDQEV
Nature of the assay: TR reporter-gene assay (Gal4 DBD hybrid, luciferase), TRα. The settings on record: HEK293-derived reporter cells, 24 hr treatment; read-out: TRα EC50. It is filed as cell-based. The procedure, abridged:
(§1)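 HEK293 reporter cells expressing Gal4-DBD/TR ligand-binding hybrids driving firefly luciferase from a Gal4 UAS; cells pre-incubated 6 h, then treated 24 h at 37 °C in medium with 10% charcoal-stripped FBS (final DMSO 0.1–0.4%), in duplicate. Read-out was luminescence (RLU).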

In another assay the target is T2, TRβ (Homo sapiens, UniProt P10828).
T2 construct: expressed in transfected cells; host or cells: HEK293
T2 sequence (P10828 217-461 limits assumed): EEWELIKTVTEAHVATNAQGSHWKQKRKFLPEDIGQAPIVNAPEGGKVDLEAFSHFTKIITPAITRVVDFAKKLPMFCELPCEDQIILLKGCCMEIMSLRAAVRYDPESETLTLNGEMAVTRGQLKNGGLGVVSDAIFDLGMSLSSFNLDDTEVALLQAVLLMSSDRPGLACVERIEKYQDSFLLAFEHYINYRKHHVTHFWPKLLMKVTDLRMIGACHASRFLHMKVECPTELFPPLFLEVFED
The assay is described as follows: TR reporter-gene assay (Gal4 DBD hybrid, luciferase), TRβ. In kind it is cell-based. The settings on record: for EC50: HEK293-derived reporter cells, 24 hr treatment, read-out: TRβ EC50. The procedure, abridged:
as §1

Experimental findings from patent US12528761B2, “Thyromimetics” (Autobahn Therapeutics, Inc., priority 2020, dated 2026) are described below.

Regarding `C=C(Cc1cc(Cl)c(Cc2ccc(O)c(C(C)C)c2F)c(Cl)c1)C(=O)O` [Compound 201, 2-(3,5-dichloro-4-(2-fluoro-4-hydroxy-3-isopropylbenzyl)benzyl)acrylic acid], the half-maximal effective concentration (EC50) on TRα and on TRβ was under 0.01 µM throughout. Besides, at TRβ (class symbols), the “T3-SI (selectivity index, EC50 (TRα)/EC50 (TRβ))” value was “++ (3× < T3-SI ≤ 30×)”.

In the case of `CC(Oc1cc(Cl)c(Cc2ccc(O)c(C(C)C)c2F)c(Cl)c1)C(=O)O` (stereo not drawn) [Compound 58, 2-(3,5-dichloro-4-(2-fluoro-4-hydroxy-3-isopropylbenzyl)phenoxy)propanoic acid], the 50% effective concentration (EC50) was 0.1 to 1 µM at TRα and 0.01 to 0.1 µM on TRβ. For the same molecule, the “T3-SI (selectivity index, EC50 (TRα)/EC50 (TRβ))” value on TRβ (class symbols) was “++ (3× < T3-SI ≤ 30×)”.

For `CC(c1ccc(F)cc1)c1c(O)ccc(Cc2c(Cl)cc(NC(=O)CC(=O)O)cc2Cl)c1F` (stereo not drawn) [Compound 56, 3-((3,5-dichloro-4-(2-fluoro-3-(1-(4-fluorophenyl)ethyl)-4-hydroxybenzyl)phenyl)amino)-3-oxopropanoic acid], the EC50 on TRα lay in the range of 0.1 to 1 µM; on TRβ, 0.01 to 0.1 µM. Moreover, the “T3-SI (selectivity index, EC50 (TRα)/EC50 (TRβ))” value on TRβ (class symbols) is “++ (3× < T3-SI ≤ 30×)”.

For `CC(C)c1cc(Cc2c(Cl)cc(CSCC(=O)O)cc2Cl)ccc1O` [Compound 95, 2-((3,5-dichloro-4-(4-hydroxy-3-isopropylbenzyl)benzyl)thio)acetic acid], the 50% effective concentration (EC50) was 0.01 to 0.1 µM on TRα and 0.1 to 1 µM on TRβ. For the same molecule, at TRβ (class symbols), the “T3-SI (selectivity index, EC50 (TRα)/EC50 (TRβ))” value is “++ (3× < T3-SI ≤ 30×)”.

Consider `CC(c1ccc(F)cc1)c1cc(Cc2c(Cl)cc(CC(=O)O)cc2Cl)ccc1O` (stereo not drawn) [Compound 9, 2-(3,5-dichloro-4-(3-(1-(4-fluorophenyl)ethyl)-4-hydroxybenzyl)phenyl)acetic acid], for which the results for the EC50 at TRα and at TRβ were 0.01 to 0.1 µM and under 0.01 µM, respectively. Also, the “T3-SI (selectivity index, EC50 (TRα)/EC50 (TRβ))” value on TRβ (class symbols) was “++ (3× < T3-SI ≤ 30×)”.

As to `CC(c1ccc(F)cc1)c1c(O)ccc(Cc2c(Cl)cc(CCC(=O)O)cc2Cl)c1F` (stereo not drawn) [Compound 18, 3-(3,5-dichloro-4-(2-fluoro-3-(1-(4-fluorophenyl)ethyl)-4-hydroxybenzyl)phenyl)propanoic acid], the EC50 at TRα and on TRβ was 0.01 to 0.1 µM in each case. Also, the “T3-SI (selectivity index, EC50 (TRα)/EC50 (TRβ))” value at TRβ (class symbols) was “+ (T3-SI ≤ 3×)”.

`C/C(=C\c1cc(Cl)c(Cc2ccc(O)c(C(C)C)c2)c(Cl)c1)C(=O)O` [Compound 102, (E)-3-(3,5-dichloro-4-(4-hydroxy-3-isopropylbenzyl)phenyl)-2-methylacrylic acid]: the EC50 on TRα and at TRβ was 0.1 to 1 µM in each case. Also, at TRβ (class symbols), the “T3-SI (selectivity index, EC50 (TRα)/EC50 (TRβ))” value was “++ (3× < T3-SI ≤ 30×)”.

On to `CC(C)c1c(O)ccc(Cc2c(Cl)cc(NC(=O)C(=O)O)cc2Cl)c1F` [Compound 213, 2-((3,5-dichloro-4-(2-fluoro-4-hydroxy-3-isopropylbenzyl)phenyl)amino)-2-oxoacetic acid], for which the 50% effective concentration (EC50) on TRα and on TRβ was 0.1 to 1 µM each time. On TRβ (given as a number), the “T3-SI (selectivity index, EC50 (TRα)/EC50 (TRβ))” value was determined as 7.15.

For `Cc1cc(NC(=O)CC(=O)O)cc(C)c1Cc1ccc(O)c(C(C)c2ccc(F)cc2)c1` (stereo not drawn) [Compound 4, 3-((4-(3-(1-(4-fluorophenyl)ethyl)-4-hydroxybenzyl)-3,5-dimethylphenyl)amino)-3-oxopropanoic acid], the EC50 at TRα is 0.1 to 1 µM; on TRβ it was 0.01 to 0.1 µM. Moreover, the “T3-SI (selectivity index, EC50 (TRα)/EC50 (TRβ))” value at TRβ (class symbols) was “++ (3× < T3-SI ≤ 30×)”.

Take `CC(c1ccc(F)cc1)c1c(O)ccc(Cc2c(Cl)cc(NCC(=O)O)cc2Cl)c1F` (stereo not drawn) [Compound 50, (3,5-dichloro-4-(2-fluoro-3-(1-(4-fluorophenyl)ethyl)-4-hydroxybenzyl)phenyl) glycine]: the EC50 is 0.01 to 0.1 µM on TRα and under 0.01 µM on TRβ. For the same molecule, the “T3-SI (selectivity index, EC50 (TRα)/EC50 (TRβ))” value at TRβ (class symbols) is “++ (3× < T3-SI ≤ 30×)”.

For `CC(C)c1c(O)ccc(Cc2c(Cl)cc(CSCC(=O)O)cc2Cl)c1F` [Compound 200, 2-((3,5-dichloro-4-(2-fluoro-4-hydroxy-3-isopropylbenzyl)benzyl)thio)acetic acid], the 50% effective concentration (EC50) on TRα and at TRβ was under 0.01 µM each time. In addition, the “T3-SI (selectivity index, EC50 (TRα)/EC50 (TRβ))” value on TRβ (class symbols) is “++ (3× < T3-SI ≤ 30×)”.

For the molecule `CC(C)c1cc(Cc2c(Cl)cc(NCC(=O)O)c(F)c2Cl)ccc1O` [Compound 75, (3,5-dichloro-2-fluoro-4-(4-hydroxy-3-isopropylbenzyl)phenyl)glycine], the concentration for a half-maximal effect (EC50) at TRα and at TRβ was 0.01 to 0.1 µM in each case. Moreover, on TRβ (class symbols), the “T3-SI (selectivity index, EC50 (TRα)/EC50 (TRβ))” value is “++ (3× < T3-SI ≤ 30×)”.

As to `Cc1c(F)c(CSCC(=O)O)cc(Cl)c1Cc1ccc(O)c(C(C)C)c1` [Compound 226, 2-((5-chloro-2-fluoro-4-(4-hydroxy-3-isopropylbenzyl)-3-methylbenzyl)thio)acetic acid], the EC50 at TRα and at TRβ was 0.1 to 1 µM in each case. Further, the “T3-SI (selectivity index, EC50 (TRα)/EC50 (TRβ))” value at TRβ (class symbols) was “++ (3× < T3-SI ≤ 30×)”.

`CC(C)c1c(O)ccc(Cc2c(Cl)cc(NCC(=O)O)c(F)c2Cl)c1F` [Compound 78, (3,5-dichloro-2-fluoro-4-(2-fluoro-4-hydroxy-3-isopropylbenzyl)phenyl)glycine]: the concentration giving a half-maximal response (EC50) at TRα and on TRβ was under 0.01 µM each time. On TRβ (class symbols), the “T3-SI (selectivity index, EC50 (TRα)/EC50 (TRβ))” value was “++ (3× < T3-SI ≤ 30×)”.

With `CONC(=O)Cc1cc(Cl)c(Cc2ccc(O)c(C(C)C)c2F)c(Cl)c1` [Compound 104, 2-(3,5-dichloro-4-(2-fluoro-4-hydroxy-3-isopropylbenzyl)phenyl)-N-methoxyacetamide], the EC50 is over 1 µM at TRα and 0.1 to 1 µM at TRβ. Besides, the “T3-SI (selectivity index, EC50 (TRα)/EC50 (TRβ))” value on TRβ (class symbols) is “+++ (T3-SI > 30×)”.

As for `CC(C)c1c(O)ccc(Cc2c(Cl)cc(CC3NC(=O)NC3=O)cc2Cl)c1F` (stereo not drawn) [Compound 206, 5-(3,5-dichloro-4-(2-fluoro-4-hydroxy-3-isopropylbenzyl)benzyl)imidazolidine-2,4-dione], the EC50 on TRα and at TRβ was over 1 µM each time. The “T3-SI (selectivity index, EC50 (TRα)/EC50 (TRβ))” value at TRβ (class symbols) was “+++ (T3-SI > 30×)”.

For the molecule `Cc1c(F)c(NCC(=O)O)cc(Cl)c1Cc1ccc(O)c(C(C)C)c1F` [Compound 133, (5-chloro-2-fluoro-4-(2-fluoro-4-hydroxy-3-isopropylbenzyl)-3-methylphenyl)glycine], the EC50 at TRα and on TRβ was under 0.01 µM throughout. For the same molecule, the “T3-SI (selectivity index, EC50 (TRα)/EC50 (TRβ))” value on TRβ (class symbols) is “++ (3× < T3-SI ≤ 30×)”.

With `C/C(=C\c1cc(Cl)c(Cc2ccc(O)c(C(C)C)c2)c(C)c1F)C(=O)O` [Compound 128, (E)-3-(5-chloro-2-fluoro-4-(4-hydroxy-3-isopropylbenzyl)-3-methylphenyl)-2-methylacrylic acid], the EC50 at TRα and at TRβ was 0.01 to 0.1 µM each time. In addition, on TRβ (class symbols), the “T3-SI (selectivity index, EC50 (TRα)/EC50 (TRβ))” value is “++ (3× < T3-SI ≤ 30×)”.

As to `CC(C)c1cc(Cc2c(Cl)cc(OCCCC(=O)O)cc2Cl)ccc1O` [Compound 24, 4-(3,5-dichloro-4-(4-hydroxy-3-isopropylbenzyl)phenoxy)butanoic acid], the EC50 on TRα and at TRβ was 0.1 to 1 µM throughout. Besides, at TRβ (class symbols), the “T3-SI (selectivity index, EC50 (TRα)/EC50 (TRβ))” value is “+ (T3-SI ≤ 3×)”.

`CC(C)c1c(O)ccc(Cc2c(Cl)cc(CC(N)C(=O)O)cc2Cl)c1F` (stereo not drawn) [Compound 207, 2-amino-3-(3,5-dichloro-4-(2-fluoro-4-hydroxy-3-isopropylbenzyl)phenyl)propanoic acid]: the values for the EC50 at TRα and at TRβ were over 1 µM and 0.1 to 1 µM, respectively. For the same molecule, the “T3-SI (selectivity index, EC50 (TRα)/EC50 (TRβ))” value at TRβ (class symbols) is “+ (T3-SI ≤ 3×)”.

With `Cc1cc(CC(=O)O)cc(C)c1Cc1ccc(O)c(C(C)c2ccc(F)cc2)c1` (stereo not drawn) [Compound 2, 2-(4-(3-(1-(4-fluorophenyl)ethyl)-4-hydroxybenzyl)-3,5-dimethylphenyl)acetic acid], the EC50 on TRα lay in the range of 0.1 to 1 µM; on TRβ, 0.01 to 0.1 µM. Besides, the “T3-SI (selectivity index, EC50 (TRα)/EC50 (TRβ))” value at TRβ (class symbols) is “++ (3× < T3-SI ≤ 30×)”.

With `Cc1cc(CS(=O)(=O)CC(=O)O)cc(Cl)c1Cc1ccc(O)c(C(C)C)c1` [Compound 245, 2-((3-chloro-4-(4-hydroxy-3-isopropylbenzyl)-5-methylbenzyl)sulfonyl)acetic acid], the EC50 at TRα and at TRβ was over 1 µM throughout. Also, on TRβ (class symbols), the “T3-SI (selectivity index, EC50 (TRα)/EC50 (TRβ))” value is “++ (3× < T3-SI ≤ 30×)”.

As for `Cc1c(F)c(CNCC(=O)O)cc(Cl)c1Cc1ccc(O)c(C(C)C)c1` [Compound 221, (5-chloro-2-fluoro-4-(4-hydroxy-3-isopropylbenzyl)-3-methylbenzyl)glycine], the half-maximal effective concentration (EC50) on TRα and on TRβ was 0.1 to 1 µM in each case. In addition, on TRβ (class symbols), the “T3-SI (selectivity index, EC50 (TRα)/EC50 (TRβ))” value is “++ (3× < T3-SI ≤ 30×)”.

For `Cc1c(F)c(SCC(=O)O)cc(Cl)c1Cc1ccc(O)c(C(C)C)c1` [Compound 227, 2-((5-chloro-2-fluoro-4-(4-hydroxy-3-isopropylbenzyl)-3-methylphenyl)thio)acetic acid], the EC50 at TRα and on TRβ was 0.1 to 1 µM each time. In addition, at TRβ (class symbols), the “T3-SI (selectivity index, EC50 (TRα)/EC50 (TRβ))” value was “++ (3× < T3-SI ≤ 30×)”.

For orientation: EC50 means the concentration at which the effect is half-maximal.
